Where two headings read alike, the source gives them in different places. Strand notation (5' to 3'): a small letter for the sugar, then the base; units joined by * are phosphorothioate-linked, units joined directly phosphodiester-linked; [ ] holds rarer units or linkages, { } end groups; capitals alone tell only the bases. e = 2'-O-(2-methoxyethyl) (MOE); [5mC] = 5-methylcytosine; d = 2'-deoxy (DNA)
Assays:
[1] = Tail bleeding assay vs warfarin (Example 12); conditions: mouse, in vivo; for Blood (tail bleeding, collected over 40 minutes): sc
Method: A separate control group of BALB/c mice was treated with PBS, administered subcutaneously twice a week for 3 weeks.
Mice were anesthetized in the chamber with isoflurane and a small piece of tail (approximately 4 mm from the tip) was cut with sterile scissors. The tail cut was immediately placed in a 15 mL Falcon tube filled with approximately 10 mL of 0.9% NaCl buffer solution warmed to 37° C. The blood was collected over the course of 40 minutes. The saline filled tubes were weighed both before and after bleeding.

[2] = parameters: species or system BALB/c mice; conditions: mouse, in vivo; for Blood (tail bleeding, collected over 40 minutes): sc
Method: ISIS 404071 and Apixaban were evaluated in the tail bleeding model.
The saline filled tubes were weighed before and after bleeding.

[3] = Collagenase-induced intracerebral hemorrhage model: hemorrhage volume, neurologic deficit score, mortality (Example 25); format: in vivo, BALB/c mice
Method: In a first cohort, ISIS 404071 was administered subcutaneously to BALB/c mice twice a week for two weeks at a dose 40 mg/kg. […] In a third cohort, ISIS 421208 ([…], 8 mismatches to murine Factor 11, incorporated herein as SEQ ID NO: 14) was administered subcutaneously to BALB/c mice twice a week for two weeks at a dose 40 mg/kg. In a fourth cohort, PBS was administered to BALB/c mice twice a week for two weeks.
Two days after receiving their final dose, all mice in all cohorts were anesthetized with […] of avertin. Next, the mice were injected at −1 mm AP, 1 mm R ML, −4 mm DV from bregma flat skull with a 10 μL Hamilton syringe containing 0.075 U collagenase (150 U/mL). Collagenase was delivered over 5 minutes and the needle was kept in place for an additional 5 minutes to prevent reflux. The mice were then analyzed for hemorrhagic size, neurologic deficit score, and mortality.
Table 37 presents the hemorrhage volume detected in mice after collagenase treatment, Table 38 presents the neurologic deficit score of the mice, and Table 39 presents the mortality rate of the mice. Neurological deficit is measured by a standard scoring system where no deficiency is zero and severe deficit is five.

[4] = test system: IL-1β, IL-6, IFN-γ, TNF-α, IL-8, MIP-1α, MCP-1, MIP-1β, RANTES; assay: Cytokine and chemokine assays in cynomolgus monkeys (Example 45); format: in vivo; conditions: escalating dose regimen
Method: Groups, each consisting of two male and three female monkeys, were injected subcutaneously with ISIS 416838, ISIS 416850, ISIS 416858, ISIS 416864, or ISIS 417002 in escalating doses. Antisense oligonucleotide was administered to the monkeys at 5 mg/kg three times per a week for week 1; 5 mg/kg twice per week for weeks 2 and 3; 10 mg/kg three times per week for week 4; 10 mg/kg twice per week for weeks 5 and 6; 25 mg/kg three times per week for week 7; and 25 mg/kg twice per week for weeks 8, 9, 10, 11, and 12. One control group, consisting of two male and three female monkeys, was injected subcutaneously with PBS according to the same dosing regimen. An additional experimental group, consisting of two male and three female monkeys, was injected subcutaneously with ISIS 416850 in a chronic, lower dose regimen. Antisense oligonucleotide was administered to the monkeys at 5 mg/kg three times per week for week 1; 5 mg/kg twice per week for week 2 and 3; 10 mg/kg three times per week for week 4; and 10 mg/kg twice per week for weeks 5 to 12. Body weights were measured weekly. Blood samples were collected 14 days and 5 days before the start of treatment and subsequently once per week for Factor 11 protein activity analysis in plasma, fibrinogen measurement, PT and aPTT measurements, bleeding times, and measurement of various hematologic factors. On day 85, the monkeys were euthanized by exsanguination while under deep anesthesia, and organs harvested for further analysis.
Blood samples obtained from the monkey groups treated with PBS, ISIS 416850 and ISIS 416858 administered in the escalating dose regimen were sent to Pierce Biotechnology (Woburn, Mass.) for measurement of chemokine and cytokine levels. Levels of IL-1β, IL-6, IFN-γ, and TNF-α were measured using the respective primate antibodies and levels of IL-8, MIP-1α, MCP-1, MIP-1β and RANTES were measured using the respective cross-reacting human antibodies. Measurements were taken 14 days before the start of treatment and on day 85, when the monkeys were euthanized.

[5] = Tolerability in Sprague-Dawley rats: kidney function (Example 42); conditions: 50 mg/kg s.c. twice per week for 6 weeks; for BUN / Creatinine: plasma
[6] = collagenase-induced intracerebral hemorrhage, 40 mg/kg twice a week for two weeks
[7] = day −14 (before start of treatment)

Q: For “ISIS 404071: antisense oligonucleotide targeted to murine Factor 11 mRNA, TGGTAATCCACTTTCAGAGG, target start site 869 (chemistry not given here)”, which “bleeding in tail bleeding assay” value [1] is on record?
A: The value was “did not affect bleeding”.

Q: And the “Blood (tail bleeding, collected over 40 minutes)” value ([1]; 1.25 mg/kg)?
A: The value was 0.00 g.

Q: And the “Blood (tail bleeding, collected over 40 minutes)” value ([1]; 5 mg/kg)?
A: The value was 0.03 g.

Q: What about the “Blood (tail bleeding, collected over 40 minutes)” value ([1]; 10 mg/kg) of the same substance?
A: The value was 0.00 g.

Q: What about the “Blood (tail bleeding, collected over 40 minutes)” value ([1]; 20 mg/kg) of the same substance?
A: Its value is 0.06 g.

Q: And the “Blood (tail bleeding, collected over 40 minutes)” value ([1]; 40 mg/kg)?
A: Its value is 0.03 g.

Q: What about the “bleeding in tail bleeding assay” value [2] of the same substance?
A: Its value is “did not affect bleeding”.

Q: What about the “Blood (tail bleeding, collected over 40 minutes)” value ([2]; 1.25 mg/kg) of the same substance?
A: Its value is 0.00 g.

Q: What about the “Blood (tail bleeding, collected over 40 minutes)” value ([2]; 5 mg/kg) of the same substance?
A: Its value is 0.00 g.

Q: What about the “Blood (tail bleeding, collected over 40 minutes)” value ([2]; 10 mg/kg) of the same substance?
A: Its value is 0.04 g.

Q: And the “Blood (tail bleeding, collected over 40 minutes)” value ([2]; 25 mg/kg)?
A: Its value is 0.01 g.

Q: What about the “Blood (tail bleeding, collected over 40 minutes)” value ([2]; 50 mg/kg) of the same substance?
A: The value was 0.01 g.

Q: And the “Hemorrhagic volume after collagenase treatment” value ([3]; 40 mg/kg s.c. twice a week for two weeks)?
A: Its value is 38 mm^3.

Q: What about the “Neurologic Deficit Score after collagenase treatment” value ([3]; 40 mg/kg s.c. twice a week for two weeks, score zero (no deficiency) to five (severe deficit)) of the same substance?
A: The value was 3.8.

Q: What about the “% mortality after collagenase treatment” value ([3]; ISIS oligonucleotides 40 mg/kg s.c., warfarin 2 mg/kg intraperitoneally, twice a week for two weeks) of the same substance?
A: The value was 20%.

Q: And the “hemorrhagic size” value [3, 6]?
A: The value was “did not have a significant effect”.

Q: And the “mortality” value [3, 6]?
A: The value was “did not have a significant effect”.

Q: What about the “neurologic deficit score” value [3, 6] of the same substance?
A: Its value is “did not have a significant effect”.

Q: For “ISIS 416850: MOE gapmer, nucleobases 1275 to 1318 of SEQ ID NO: 1 (Table 8) (antisense TGCACAGTTTCTGGCAGGCC; MOE gapmer, wing and gap sizes not given here)”, which IFN-γ level ([4]; day 85) is on record?
A: The IFN-γ level was 18 pg/mL.

Q: And the IL-1β level ([4]; day 85)?
A: The IL-1β level was 13 pg/mL.

Q: What about the IL-6 level ([4]; day 85) of the same substance?
A: The IL-6 level was 17 pg/mL.

Q: And the IL-8 level ([4]; day 85)?
A: Its IL-8 level is 172 pg/mL.

Q: And the MCP-1 level ([4]; day 85)?
A: Its MCP-1 level is 2330 pg/mL.

Q: And the MIP-1α level ([4]; day 85)?
A: Its MIP-1α level is 41 pg/mL.

Q: What about the MIP-1β level ([4]; day 85) of the same substance?
A: The MIP-1β level was 216 pg/mL.

Q: And the RANTES level ([4]; day 85)?
A: Its RANTES level is 83981 pg/mL.

Q: And the TNF-α level ([4]; day 85)?
A: The TNF-α level was 27 pg/mL.

Q: And the IFN-γ level [4, 7]?
A: Its IFN-γ level is 126 pg/mL.

Q: And the IL-1β level [4, 7]?
A: The IL-1β level was 3 pg/mL.

Q: And the IL-6 level [4, 7]?
A: The IL-6 level was 30 pg/mL.

Q: What about the IL-8 level [4, 7] of the same substance?
A: The IL-8 level was 1659 pg/mL.

Q: And the MCP-1 level [4, 7]?
A: Its MCP-1 level is 1384 pg/mL.

Q: What about the MIP-1α level [4, 7] of the same substance?
A: Its MIP-1α level is 28 pg/mL.

Q: And the MIP-1β level [4, 7]?
A: Its MIP-1β level is 137 pg/mL.

Q: And the RANTES level [4, 7]?
A: The RANTES level was 75335 pg/mL.

Q: What about the TNF-α level [4, 7] of the same substance?
A: The TNF-α level was 14 pg/mL.

Q: Which IFN-γ level ([4]; day 85) does the source give for “ISIS 416858: MOE gapmer, nucleobases 1275 to 1318 of SEQ ID NO: 1 (Table 8) (antisense ACGGCATTGGTGCACAGTTT; MOE gapmer, wing and gap sizes not given here)” here?
A: The IFN-γ level was 18 pg/mL.

Q: What about the IL-1β level ([4]; day 85) of the same substance?
A: Its IL-1β level is 5 pg/mL.

Q: And the IL-6 level ([4]; day 85)?
A: Its IL-6 level is 25 pg/mL.

Q: What about the IL-8 level ([4]; day 85) of the same substance?
A: The IL-8 level was 303 pg/mL.

Q: What about the MCP-1 level ([4]; day 85) of the same substance?
A: The MCP-1 level was 1752 pg/mL.

Q: And the MIP-1α level ([4]; day 85)?
A: The MIP-1α level was 41 pg/mL.

Q: And the MIP-1β level ([4]; day 85)?
A: Its MIP-1β level is 221 pg/mL.

Q: What about the RANTES level ([4]; day 85) of the same substance?
A: The RANTES level was 125511 pg/mL.

Q: And the TNF-α level ([4]; day 85)?
A: Its TNF-α level is 45 pg/mL.

Q: And the IFN-γ level [4, 7]?
A: Its IFN-γ level is 60 pg/mL.

Q: What about the IL-1β level [4, 7] of the same substance?
A: Its IL-1β level is 5 pg/mL.

Q: And the IL-6 level [4, 7]?
A: Its IL-6 level is 9 pg/mL.

Q: What about the IL-8 level [4, 7] of the same substance?
A: Its IL-8 level is 1552 pg/mL.

Q: What about the MCP-1 level [4, 7] of the same substance?
A: The MCP-1 level was 1252 pg/mL.

Q: What about the MIP-1α level [4, 7] of the same substance?
A: The MIP-1α level was 36 pg/mL.

Q: What about the MIP-1β level [4, 7] of the same substance?
A: Its MIP-1β level is 122 pg/mL.

Q: What about the RANTES level [4, 7] of the same substance?
A: The RANTES level was 112253 pg/mL.

Q: What about the TNF-α level [4, 7] of the same substance?
A: Its TNF-α level is 9 pg/mL.

Q: For “ISIS 445522: 5-8-5 or 6-8-6 MOE microwalk gapmer (Table 44) (antisense eG*e[5mC]*eA*e[5mC]*eA*dG*dT*dT*dT*d[5mC]*dT*dG*dG*e[5mC]*eA*eG*eG*e[5mC])”, which BUN [5] is on record?
A: The BUN was 25 mg/dL.

Q: What about the Creatinine [5] of the same substance?
A: The Creatinine was 0.4 mg/dL.

Q: And the Urine protein/creatinine ratio [5]?
A: Its Urine protein/creatinine ratio is 6.4.

Q: Which BUN [5] does the source give for “ISIS 445531: 5-8-5 or 6-8-6 MOE microwalk gapmer (Table 44) (antisense eG*eG*e[5mC]*eA*eT*dT*dG*dG*dT*dG*d[5mC]*dA*d[5mC]*eA*eG*eT*eT*eT)” here?
A: Its BUN is 23 mg/dL.

Q: What about the Creatinine [5] of the same substance?
A: Its Creatinine is 0.4 mg/dL.

Q: And the Urine protein/creatinine ratio [5]?
A: The Urine protein/creatinine ratio was 3.4.

Reference: patent US20230263822A1, “MODULATION OF FACTOR 11 EXPRESSION” (Ionis Pharmaceuticals, Inc., priority 2008, published 2023)
